Assay results from PubChem BioAssay (NCI).
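Dose response: 5 concentrations. Exposure: 48 h. Format: 96-well plates. Endpoint: linear interpolation; highest concentration if not reached. TGI marks complete inhibition of growth.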

What was measured:
Assay in all cases: growth of human tumour cells (NCI), 48 h
HCC-2998 colon = system: HCC-2998 colon
SK-OV-3 ovarian = system: SK-OV-3 ovarian
SNB-78 CNS = system: SNB-78 CNS
SF-539 CNS = system: SF-539 CNS
HT29 colon = system: HT29 colon
SW-620 colon = system: SW-620 colon
SK-MEL-28 melanoma = system: SK-MEL-28 melanoma
U251 CNS = system: U251 CNS
HCT-15 colon = system: HCT-15 colon
SK-MEL-5 melanoma = system: SK-MEL-5 melanoma
SF-295 CNS = system: SF-295 CNS
TK-10 renal = system: TK-10 renal
HOP-92 NSCLC = system: HOP-92 NSCLC
OVCAR-3 ovarian = system: OVCAR-3 ovarian
UACC-257 melanoma = system: UACC-257 melanoma
SK-MEL-2 melanoma = system: SK-MEL-2 melanoma
M19-MEL melanoma = system: M19-MEL melanoma
COLO 205 colon = system: COLO 205 colon
CCRF-CEM leukemia = system: CCRF-CEM leukemia
ACHN renal = system: ACHN renal
IGROV1 ovarian = system: IGROV1 ovarian
LXFL 529 NSCLC = system: LXFL 529 NSCLC
DLD-1 colon = system: DLD-1 colon
MALME-3M melanoma = system: MALME-3M melanoma
CAKI-1 renal = system: CAKI-1 renal
RPMI-8226 leukemia = system: RPMI-8226 leukemia
RXF 393 renal = system: RXF 393 renal
SNB-75 CNS = system: SNB-75 CNS
A498 renal = system: A498 renal
NCI-H522 lung = system: NCI-H522 lung
XF 498 CNS = system: XF 498 CNS
OVCAR-4 ovarian = system: OVCAR-4 ovarian
LOX IMVI melanoma = system: LOX IMVI melanoma
HOP-62 NSCLC = system: HOP-62 NSCLC
OVCAR-8 ovarian = system: OVCAR-8 ovarian
EKVX NSCLC = system: EKVX NSCLC
KM12 colon = system: KM12 colon
NCI-H460 lung = system: NCI-H460 lung
UO-31 renal = system: UO-31 renal
HL-60(TB) leukemia = system: HL-60(TB) leukemia
OVCAR-5 ovarian = system: OVCAR-5 ovarian
KM20L2 colon = system: KM20L2 colon
SNB-19 CNS = system: SNB-19 CNS
786-0 renal = system: 786-0 renal
UACC-62 melanoma = system: UACC-62 melanoma
DMS 114 small cell lung = system: DMS 114 small cell lung
NCI-H23 lung = system: NCI-H23 lung
MOLT-4 leukemia = system: MOLT-4 leukemia
K-562 leukemia = system: K-562 leukemia
NCI-H226 lung = system: NCI-H226 lung
A549 NSCLC = system: A549 NSCLC
HCT-116 colon = system: HCT-116 colon
SF-268 CNS = system: SF-268 CNS
M14 melanoma = system: M14 melanoma
SR leukemia = system: SR leukemia
SN12C renal = system: SN12C renal
DMS 273 small cell lung = system: DMS 273 small cell lung

With `Cc1ccccc1NC(=O)c1c(C)oc2c1C(=O)c1ccccc1C2=O` the TGI (HCC-2998 colon) was > 100 µM, the TGI (SK-OV-3 ovarian) was > 100 µM and the TGI (SNB-78 CNS) was 5.98 µM. For the same compound, the TGI (SF-539 CNS) was > 68.5 µM, the TGI (HT29 colon) was > 100 µM and the TGI (SW-620 colon) was > 57.9 µM. The TGI (SK-MEL-28 melanoma) was > 100 µM, the TGI (U251 CNS) was > 20.2 µM and the TGI (HCT-15 colon) was > 74.8 µM. For the same compound, the TGI (SK-MEL-5 melanoma) was 27.1 µM, the TGI (SF-295 CNS) was > 100 µM and the TGI (TK-10 renal) was > 100 µM. The TGI (HOP-92 NSCLC) was 65.2 µM, the TGI (OVCAR-3 ovarian) was > 72.1 µM and the TGI (UACC-257 melanoma) was 52.7 µM. For the same compound, the TGI (SK-MEL-2 melanoma) was > 72.3 µM, the TGI (M19-MEL melanoma) was 26.6 µM and the TGI (COLO 205 colon) was > 100 µM. The TGI (CCRF-CEM leukemia) was 48.1 µM, the TGI (ACHN renal) was > 100 µM and the TGI (IGROV1 ovarian) was > 100 µM. The TGI (LXFL 529 NSCLC) was > 55.9 µM, the TGI (DLD-1 colon) was > 68.6 µM and the TGI (MALME-3M melanoma) was 27.3 µM. For the same compound, the TGI (CAKI-1 renal) was > 100 µM, the TGI (RPMI-8226 leukemia) was 60.9 µM and the TGI (RXF 393 renal) was > 100 µM. The TGI (SNB-75 CNS) was > 100 µM, the TGI (A498 renal) was > 100 µM and the TGI (NCI-H522 lung) was 35.8 µM. The TGI (XF 498 CNS) was > 70 µM, the TGI (OVCAR-4 ovarian) was > 100 µM and the TGI (LOX IMVI melanoma) was 41.3 µM. The TGI (HOP-62 NSCLC) was > 100 µM, the TGI (OVCAR-8 ovarian) was > 100 µM and the TGI (EKVX NSCLC) was > 100 µM. The TGI (KM12 colon) was > 100 µM, the TGI (NCI-H460 lung) was > 100 µM and the TGI (UO-31 renal) was > 100 µM. For the same compound, the TGI (HL-60(TB) leukemia) was 56.9 µM, the TGI (OVCAR-5 ovarian) was > 100 µM and the TGI (KM20L2 colon) was > 100 µM. The TGI (SNB-19 CNS) was > 100 µM, the TGI (786-0 renal) was > 100 µM and the TGI (UACC-62 melanoma) was 49.8 µM. It also gave a TGI (DMS 114 small cell lung) of 68 µM, a TGI (NCI-H23 lung) of 93.5 µM and a TGI (MOLT-4 leukemia) of 47.4 µM. For the same compound, the TGI (K-562 leukemia) was 57.9 µM, the TGI (NCI-H226 lung) was > 100 µM and the TGI (A549 NSCLC) was > 96.1 µM. For the same compound, the TGI (HCT-116 colon) was > 100 µM, the TGI (SF-268 CNS) was > 100 µM and the TGI (M14 melanoma) was > 69.9 µM. The TGI (SR leukemia) was 75.5 µM, the TGI (SN12C renal) was > 100 µM and the TGI (DMS 273 small cell lung) was > 100 µM.
